Measurements reported in US20250262167A1, “COMPOUNDS, TARGETS AND PATHWAYS FOR MACROPHAGE MODULATION” (Massachusetts Institute of Technology, priority 2020, published 2025).

Key:
hMDMs = test: RNA-seq transcriptional response of hMDMs (GSEA, GO enrichment); type: cell-based, human; conditions: for gene expression of TPP modules (#30, #32) / gene expression of typical M1 modules (#7, #8): hMDMs, 24 hrs, GSEA; for macrophage phenotype at transcriptional and translational level: human macrophages
Protocol: Duplicate hMDM samples were treated with 2 M2-activating and 6 M1-activating compounds as well as IL-4 and IFNγ for 24 hrs. Gene expression levels were measured by RNA-seq separately. GSEA preranked analysis was performed based on the whole genome gene list ranked on gene expression changes using a gene set of 49 transcriptional modules in response to 29 stimuli in hMDMs. bosut.: bosutinib; alster.: alsterpaullone; mocet.: mocetinostat; thios.: thiostrepton; niclo.: niclosamide; chlor.: chlorhexidine; fenb.: fenbendazole; fluvo.: fluvoxamine. […] Duplicate hMDM samples were stimulated with each ligand and analyzed by RNA-seq separately.
RNAs were extracted with RNeasy MiniElute kit (Qiagen), converted into cDNA and sequenced using Next-Generation Sequencing (Illumina). […] Differential expression analysis was performed using the program edgeR at P<0.05 with a 2 fold-change. The gene expression level across different samples was normalized and quantified using the function of cpm. Differentially expressed genes were annotated using online functional enrichment analysis tool DAVID (http://david.ncifcrf.gov/). Gene set enrichment analysis were performed with GSEA with FDR q-value<0.05.
Fresh hMDMs were treated with compounds at the EC for 24 hours, followed by RNA-seq.

[1] = tested on: hMDMs differentiated into M2 by IL-4 plus IL-13; test: Reprogramming screen and dosage response on M2-like differentiated macrophages; conditions: for EC: M1-activating compounds on M2-like macrophages (IL-4 plus IL-13), EC = concentration reaching Z-score cutoff; for Category: differentiated macrophages; for EC (M1 Z-score cutoff): Homo sapiens, Macrophage, 24 h, read-out: EC;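 as to all read-outs here: human monocyte-derived macrophages held 24 h in 5 ng/mL IL-4 plus IL-13 before 24 h compound exposure, with cell shape measured from images in 384-well plates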
Protocol: Shown are comparison of Z-scores between 5 μM or 10 μM of compounds. […] Shown are comparison of Z-scores between 5 μM or 10 μM of compounds. […] EC and fitness of 21 M1-polarizing (triangle) and 19 M2-polarizing compounds (circle) were calculated by the Michaelis-Menten equation and plotted. Data were summarized from 3 independent experiments.
(§1) Human macrophages were seeded into optical 384-well plates. Sixteen hours later, medium in M1 plates were replaced by M1 differentiating medium (complete RPMI with 50 ng/mL IFNγ and 50 ng/mL TNFα) and medium in M2 plates by M2 differentiating medium (complete RPMI with 5 ng/mL IL-4 and 5 ng/mL IL-13). After 24 hrs cell differentiation, M1 plates (M1 macrophages) and M2 plates (M2 macrophages) were treated with M2-activating compounds and M1-activating compounds respectively for 24 hrs. Two independent experiments were performed with or without replacing differentiating medium right before treatment. Cell imaging and analysis were performed as indicated above.
To investigate whether the identified compounds could reprogram or reactivate macrophages after M1- or M2-like differentiation, we rescreened the hits on M1- or M2-activated macrophages. hMDMs were activated into M2-like macrophages by IL-4 plus IL-13 or M1-like macrophages by IFNγ plus TNFα. After removing the differentiating cytokines, M2-like macrophages were treated with each of the 166 M1-activating compounds and M1-like macrophages were treated with each of the 180 M2-activating compounds at a final concentration of either 5 μM and 10 μM. 24 hours later, cell images were taken and cell shapes were quantified. […] Dosage responses were carried out with 40 commercial available compounds (21 M1-activating and 19 M2-activating) on polarized macrophages.
(§2) We also rescreened the hits on differentiated macrophages in the presence of differentiating cytokines: either IL-4 plus IL-13 or IFNγ plus TNFα.

[2] = tested on: mouse bone marrow macrophages (BMMs); test: Development and function of TAM/M2-like macrophages in vitro (qPCR, flow cytometry); type: cell-based; conditions: mouse BMMs, induced by IL4/IL13, 24 hours
Protocol: DEGs were identified by edgeR at P<0.05 with at least 2 fold-change. Data for genes that were not classified as differentially expressed are plotted in black. […] Mouse BMMs were cultured in normal medium with or without 2.5 μM thiostrepton for 24 hrs (group 1), or cultured in B16F10 tumor cell conditioned medium (CM) with or without 2.5 μM thiostrepton for 24 hrs (group 2), or cultured with B16F10 tumor cell CM for 24 hrs first and then treated with 2.5 μM thiostrepton for another 24 hrs (group 3). The transcript levels of the indicated genes were quantified by qPCR. Data were summarized from two independent experiments. […] Mouse BMMs were treated with thiostrepton for 24 hrs. Untreated and treated macrophages were co-cultured with equal number of B16F10 melanoma cells for 12 hrs. The number of tumor cells were quantified by flow cytometry after subtracting macrophages from total number of cells. Data were summarized from three independent experiments. ** P<0.01 by T-test.
Expression of MHCII, CD80, iNOS, Arg1 and CD206 were quantified by flow cytometry. Shown are representative staining profiles of treated (red) and untreated (dark) TAMs from two independent experiments. […] Alternatively, mouse BMMs were polarized with IL-4/IL-13 (group 3) or lactic acid (group 5) for 24 hrs first and then either not treated or treated with […] thiostrepton for another 24 hrs. The transcript levels of the indicated genes were quantified by qPCR. Data are summarized from two independent experiments.
Mouse BMMs were not treated or treated with […] thiostrepton for 24 hours in normal medium (group 1) or in the presence of IL4/IL13 (group 2), or mouse BMMs were polarized with IL4/IL13 for 24 hours and then either not treated or treated with […] thiostrepton for 24 hours (group 3). RNA was isolated and the transcript levels of the indicated genes were quantified by PCR. Data, shown as mean±s.d., were summarized from two independent experiments. * P<0.05 and ** P<0.01 by T-test. […] Data are shown as mean±s.e.m. FIGS. 19C-19D show flow cytometry analysis of TAM (F4/80^+CD11b^+Ly6C^−Ly6G^−), inflammatory monocytes (F4/80′^intCD11b^+Ly6C^+Ly6G^−) and monocytes (F4/80^−CD11b^+Ly6C^+Ly6G^+) in the tumors of mice treated with DMSO, TA99, cucurbitacin I, and cucurbitacin I plus TA99 18 days after tumor engraftment. Shown are representative F4/80 versus CD11b staining profiles gating on CD45+ cells and MHCII histograms gating on macrophages from c.
Mouse bone marrow-derived macrophages (mBMM) were prepared as described previously^54. Briefly, fresh bone marrow cells were isolated from B6 mice. Cells were plated into 6-well plate with 1×10^6/mL in complete RPMI with 2-mercaptoethanol and cultured for 6 days with fresh medium change every 2 days. mBMMs were differentiated to resemble TAMs in the presence of 10 ng/mL mIL-4 and mIL-13 (Peprotech) or 25 mM lactate acid for 24 hrs or tumor conditioned medium (CM). To prepare CM, 70% confluent B16F10 cultured were replaced with fresh medium and the tumor medium was collected and filtered ([…]) 24 hrs later. The mixture of 3 volumes of tumor medium with 1 volume of complete RPMI for mBMM serves as the CM. Expression of Arg, Fizz1 and Vegfa were quantified by qPCR to assess the development of TAMs. Other genes of Tnf, Il1b, Nos2, Cxcl2, Ccl5, Ym1 and Tgfb serve as macrophage activating markers. To assay the tumor growth inhibition, mBMMs (10,000 cells per well in 96 well plate) were treated with thiostrepton for 24 hrs and then cocultured with equal number of B16 melanoma cells in fresh complete RPMI for 12 hrs. The conditioned medium treated or not treated with thiostrepton were collected and filtered. The numbers of B16 melanoma cells were cultured for 12 hrs with conditioned medium or conditioned medium heated at 95° C. for 5 min. Tumor cells were quantified by flow cytometry to determine the macrophage-dependent killing function. […]

[3] = tested on: subcutaneous B16F10 tumors; test: B16F10 melanoma model in B6 mice; type: in vivo, mouse; conditions: i.p. 1 mg/kg
M0 macrophages (hMDMs) = test: Dosage response of cell shape change on M0 macrophages; type: cell-based, human; conditions: M0 macrophages; for EC: EC = concentration inducing cell morphology changes to reach the M1 or M2 Z-score cutoff, Michaelis-Menten fit, 3 independent experiments, unit of the source corrected; for Max absolute Z-value: Max Z-score from Michaelis-Menten equation, negative = round, positive = elongated
[4] = tested on: human monocyte-derived macrophages (hMDMs); test: High throughput phenotypic screen of macrophage activation (cell shape, Z-score); type: cell-based; set-up: key to Average Z-value: Z-score vs DMSO; negative = round cells, positive = elongated; conditions: for activation state induced in the screen: compounds regulating actin-cytoskeleton;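 as to all read-outs here: phalloidin and DAPI stained hMDMs imaged by high-content microscopy, cell eccentricity compared with DMSO control by T-test, round morphology scored negative, elongated positive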
Protocol: The Z-score was calculated by T-test to measure the difference of cell morphology between treatment and control. Stimuli had negative Z-scores when induced cells to round morphology and positive scores when induced cells to elongated morphology. […] Equally mixed human monocytes isolated from fresh blood of 4 healthy donors were cultured in vitro with 50 ng/mL M-CSF for 7 days. hMDMs were trypsinized and plated on 384-well plates (5000 cells/well in 50 μL). Cells were recovered in 10 ng/mL M-CSF for 16 hrs and then treated with compounds for 24 hrs. Cells were washed, fixed and stained with Phalloidin and DAPI. The plates were scanned with a high-content microscope with six-fields per well to quantify the cell number and cell morphology. […] The cell eccentricity was calculated to measure the cell morphology. The Z-score was calculated by T-test to measure the difference in cell morphologies between each compound and DMSO control.
Cells were treated with a library of over 4000 individual compounds or drugs at the final concentration of 20 μM using the CyBi-Well simultaneous pipettor (CyBio). […] After 24 hr incubation, supernatants were removed using the microplate washer (Bioteck) and cells were fixed by adding 50 μL 16% paraformaldehyde (Thermo Scientific) with the dispenser for 20 minutes. Cells were then washed with 50 μL 1×PBS twice and incubated for 20 minutes with NucBlue and AF746 Phalloidin (Invitrogen) to stain nucleus and cytoskeleton. Cells were then washed with 50 μL 1×PBS twice and maintained in PBS for the image acquirement. Plates were read in the Opera Phenix high content screening system (PerkinElmer) to photograph cells using 20× objective in 2 fluorescent channels (Blue and FarRed). A total of 6 different fields in each well and an average of 1,000 cells were imaged per well. CellProfiler was used to identify each cell by overlapping signals from its nucleus and cytoskeleton, and calculate the eccentricity as the parameter to measure the cell morphology. The Z-score was calculated by T-test to measure the difference of cell morphology between each treatment and control. For each row of the 384-well plate, total 4 wells with first and last two columns treated with the same concentration of DMSO were combined as the control for the other 20 treatment wells in that row. In the meantime, classic M1 and M2 stimuli were added to generate the gold-standard Z-score cutoffs with M1 or M2 activation. Classic M1 stimuli include LPS (100 ng/mL), IFNγ (50 ng/mL, Peprotech), TNFα (50 ng/mL, Peprotech), or IFNγ plus TNFα. Classic M2 stimuli include IL-10 (10 ng/mL, Peprotech), IL-4 (10 ng/mL, Peprotech), or IL-13 (5 ng/mL, Peprotech).

[5] = tested on: hMDMs differentiated into M1 by IFNγ plus TNFα; test: Reprogramming screen and dosage response on M1-like differentiated macrophages; type: cell-based, human; conditions: for EC (M2 Z-score cutoff): M2-activating compounds on M1-like macrophages (IFNγ plus TNFα), EC = concentration reaching Z-score cutoff; for Category: differentiated macrophages
Protocol: Data were summarized from 3 independent experiments.
as §1
To investigate whether the identified compounds could reprogram or reactivate macrophages after M1- or M2-like differentiation, we rescreened the hits on M1- or M2-activated macrophages. hMDMs were activated into M2-like macrophages by IL-4 plus IL-13 or M1-like macrophages by IFNγ plus TNFα. […] 24 hours later, cell images were taken and cell shapes were quantified.
as §2

NCCc1c[nH]c2ccc(O)cc12 [5HT, serotonin]
gene expression of TPP modules (#30, #32) (hMDMs): down-regulated | gene expression of typical M1 modules (#7, #8) (hMDMs): up-regulated

CC(C)(O)/C=C/C(=O)[C@](C)(O)[C@H]1[C@H](O)C[C@@]2(C)[C@@H]3CC=C4[C@@H](C=C(O)C(=O)C4(C)C)[C@]3(C)C(=O)C[C@]12C [Cucurbitacin I]
EC [1]: 1.759 µM | Category [1]: M1 (−4 for M1-activated macrophages) | development and function of tumor-associated macrophages in vitro [2]: inhibits | B16F10 growth [3]: inhibited | Category (M0 macrophages (hMDMs)): M1 (−4 for M1-activated macrophages) | EC (M0 macrophages (hMDMs)): 0.342 µM | Max absolute Z-value (M0 macrophages (hMDMs)): −4.808

COC(=O)Nc1nc2ccc(Sc3ccccc3)cc2[nH]1 [Fenbendazole]
activation state induced in the screen [4]: M1-activating | EC (M1 Z-score cutoff) [1]: 0.649 µM | macrophage phenotype at transcriptional and translational level (hMDMs): activated macrophages toward M1-like phenotype

O=C(c1ccc(/C=C/c2n[nH]c3ccccc23)cc1)N1CCNCC1 [KW 2449]
EC (M2 Z-score cutoff) ([5]; Homo sapiens, Macrophage, 24 h): 2.16 µM

CN1c2cc3c(cc2N=C(c2ccc(C(=O)O)cc2)c2ccccc21)C(C)(C)CCC3(C)C [LE135]
Category (M0 macrophages (hMDMs)): M1 (−4 for M1-activated macrophages) | EC (M0 macrophages (hMDMs)): 0.419 µM | Max absolute Z-value (M0 macrophages (hMDMs)): −8.912

COCCNCc1ccc(-c2cc3nccc(Oc4ccc(NC(=S)NC(=O)Cc5ccc(F)cc5)cc4F)c3s2)nc1 [MGCD-265]
EC (M2 Z-score cutoff) ([5]; Homo sapiens, Macrophage, 24 h): 0.911 µM

CC(C)C[C@H](NC(=O)CNC(=O)c1cc(Cl)ccc1Cl)B(O)O [MLN2238]
Average Z-value ([4]; cell shape Z-score of hMDMs averaged over the compounds listed for the Wiki pathway, compounds at 20 µM for 24 hours, positive values = M2-like): 7.13 | EC (M2 Z-score cutoff) ([5]; Homo sapiens, Macrophage, 24 h): 3.46 µM

O=C(Nc1nc2ccc(NC(=O)C34CC5CC(CC(C5)C3)C4)cc2s1)c1ccccc1 [NVP 231]
Average Z-value ([4]; cell shape Z-score of hMDMs treated with compound at 20 µM for 24 hours, averaged over the compounds listed for the WikiPathways pathway, negative = M1-like, positive = M2-like): −4.79 | EC [1]: 5.745 µM | Category [1]: M1 (−4 for M1-activated macrophages) | Category (M0 macrophages (hMDMs)): M1 (−4 for M1-activated macrophages) | EC (M0 macrophages (hMDMs)): 2.25 µM | Max absolute Z-value (M0 macrophages (hMDMs)): −22.37

Cc1c(C(=O)Nc2ccc(N3C[C@@H](C)O[C@@H](C)C3)nc2)cccc1-c1ccc(OC(F)(F)F)cc1 [NVP-LDE225]
EC (M2 Z-score cutoff) ([5]; Homo sapiens, Macrophage, 24 h): 2.77 µM

c1ccc2c(Oc3nc(Nc4ccc(N5CCOCC5)cc4)c4ncn(C5CCCCC5)c4n3)cccc2c1 [Purmorphamine]
EC (M2 Z-score cutoff) ([5]; Homo sapiens, Macrophage, 24 h): 2.35 µM

OC[C@H](Cc1ccccc1)Nc1nc(Oc2ccc3c(c2)CCC3)nc2c1ncn2Cc1ccc(-c2ccccc2)cc1 [QS 11]
EC (M2 Z-score cutoff) [5]: 0.2611 µM | Category [5]: M2 (6 for M2-activated macrophages)

CNC(=O)c1cc(Oc2ccc(NC(=O)Nc3ccc(Cl)c(C(F)(F)F)c3)c(F)c2)ccn1 [Regorafenib]
EC (M2 Z-score cutoff) ([5]; Homo sapiens, Macrophage, 24 h): 2.88 µM

CO[C@H]1C[C@H](O[C@@H]2/C(C)=C/C[C@@H]3C[C@@H](C[C@]4(CC[C@H](C)[C@@H](C5CCCCC5)O4)O3)OC(=O)[C@@H]3C=C(C)/C(=N/O)[C@H]4OC/C(=C\C=C\[C@@H]2C)[C@]43O)O[C@@H](C)[C@@H]1O [SELAMECTIN]
EC (M2 Z-score cutoff) ([5]; Homo sapiens, Macrophage, 24 h): 15 µM

CNC(=O)c1cc(Oc2ccc(NC(=O)Nc3ccc(Cl)c(C(F)(F)F)c3)cc2)ccn1 [Sorafenib]
EC (M2 Z-score cutoff) ([5]; Homo sapiens, Macrophage, 24 h): 0.794 µM

CC(=O)O[C@H]1C(=O)[C@@]2(C)[C@H]([C@H](OC(=O)c3ccccc3)[C@]3(O)C[C@H](OC(=O)[C@H](O)[C@@H](NC(=O)c4ccccc4)c4ccccc4)C(C)=C1C3(C)C)[C@]1(OC(C)=O)CO[C@@H]1C[C@@H]2O [Taxol]
activation state induced in the screen [4]: M1-activating | EC (M1 Z-score cutoff) [1]: 0.129 µM | macrophage phenotype at transcriptional and translational level (hMDMs): activated macrophages toward M1-like phenotype

NCCc1ccc(O)c(O)c1 [dopamine]
gene expression of TPP modules (#30, #32) (hMDMs): up-regulated | gene expression of typical M1 modules (#7, #8) (hMDMs): down-regulated

CC[C@H](C)C(=O)O[C@H]1C[C@@H](C)C=C2C=C[C@H](C)[C@H](CC[C@@H]3C[C@@H](O)CC(=O)O3)[C@H]21 [lovastatin]
EC (M2 Z-score cutoff) ([5]; Homo sapiens, Macrophage, 24 h): 0.442 µM

CC(C)[C@]12O[C@H]1[C@@H]1O[C@]13[C@]1(O[C@H]1C[C@H]1C4=C(CC[C@@]13C)C(=O)OC4)[C@@H]2O [triptolide]
EC (M2 Z-score cutoff) ([5]; Homo sapiens, Macrophage, 24 h): 0.0619 µM

JTE 013
EC (M2 Z-score cutoff) [5]: 0.9381 µM | Category [5]: M2 (6 for M2-activated macrophages)

VEGF
gene expression of TPP modules (#30, #32) (hMDMs): down-regulated | gene expression of typical M1 modules (#7, #8) (hMDMs): up-regulated

leptin: ligand of novel pathway
gene expression of TPP modules (#30, #32) (hMDMs): down-regulated | gene expression of typical M1 modules (#7, #8) (hMDMs): up-regulated
